ChEMBL document CHEMBL3885861, “Open TG-GATES”

Species on record: Rattus norvegicus
Assay: Open TG-GATES - Regimen: Single
Assay type: toxicity, organism-based, Sprague-Dawley
Parameters: regimen Single, gender Male, age 6 weeks
Details: in vivo, po, 100 mg/kg, route gavage, dose level Low; for APTT / Bas / Eos / Fbg / Hb / Ht / Lym / MCH / MCHC / MCV / Mono / Neu / PT / Plat / RBC / Ret / WBC: tissue Blood; for KIDNEY_L / KIDNEY_R / KIDNEY_TOTAL: tissue Kidney; for LIVER: tissue Liver; for A/G / ALP / ALT / AST / BUN / CRE / Ca / Cl / DBIL / GLC / IP / K / LDH / Na / PL / RALB / TBIL / TC / TG / TP / gamma-GTP: tissue Plasma

O=C(O)COc1nn(Cc2ccccc2)c2ccccc12 [BENDAZAC]
TERMINAL_BW (9 h): 207.3 g | APTT (9 h): 17 s | Bas (9 h): 0% | Eos (9 h): 1% | Fbg (9 h): 218.2 mg/dL | Hb (9 h): 13.5 g/dL | Ht (9 h): 40.3% | Lym (9 h): 70% | MCH (9 h): 22 pg | MCHC (9 h): 33.6% | MCV (9 h): 65.4 fL | Mono (9 h): 8.8% | Neu (9 h): 20% | PT (9 h): 11.7 s | Plat (9 h): 125.1 x10_4/uL | RBC (9 h): 617 x10_4/ul | Ret (9 h): 8.5% | WBC (9 h): 105.7 x10_2/uL | KIDNEY_L (9 h): 0.9 g | KIDNEY_R (9 h): 1 g | KIDNEY_TOTAL (9 h): 1.9 g | LIVER (9 h): 8.6 g | A/G (9 h): 2.1 | ALP (9 h): 1541.8 IU/L | ALT (9 h): 29 IU/L | AST (9 h): 58.2 IU/L | BUN (9 h): 11.6 mg/dL | CRE (9 h): 0.6 mg/dL | Ca (9 h): 10.6 mg/dL | Cl (9 h): 104.4 meq/L | DBIL (9 h): 0.034 mg/dL | GLC (9 h): 189 mg/dL | IP (9 h): 9.8 mg/dL | K (9 h): 4.4 meq/L | LDH (9 h): 90.2 IU/L | Na (9 h): 142.8 meq/L | PL (9 h): 127.2 mg/dL | RALB (9 h): 3.8 g/dL | TBIL (9 h): 1 mg/dL | TC (9 h): 75.4 mg/dL | TG (9 h): 34.2 mg/dL | TP (9 h): 5.6 g/dL | gamma-GTP (9 h): 1.2 IU/L | TERMINAL_BW (24 h): 225.9 g | APTT (24 h): 17.2 s | Bas (24 h): 0% | Eos (24 h): 1% | Fbg (24 h): 209.8 mg/dL | Hb (24 h): 13.4 g/dL | Ht (24 h): 40.2% | Lym (24 h): 73% | MCH (24 h): 21.6 pg | MCHC (24 h): 33.3% | MCV (24 h): 64.9 fL | Mono (24 h): 11.6% | Neu (24 h): 14.4% | PT (24 h): 11.8 s | Plat (24 h): 115.2 x10_4/uL | RBC (24 h): 619 x10_4/ul | Ret (24 h): 7.9% | WBC (24 h): 109.4 x10_2/uL | KIDNEY_L (24 h): 1.1 g | KIDNEY_R (24 h): 1.1 g | KIDNEY_TOTAL (24 h): 2.2 g | LIVER (24 h): 11.5 g | A/G (24 h): 2.1 | ALP (24 h): 1133.2 IU/L | ALT (24 h): 39.6 IU/L | AST (24 h): 62.8 IU/L | BUN (24 h): 16.8 mg/dL | CRE (24 h): 0.6 mg/dL | Ca (24 h): 11.3 mg/dL | Cl (24 h): 104.2 meq/L | DBIL (24 h): 0.024 mg/dL | GLC (24 h): 204.8 mg/dL | IP (24 h): 8 mg/dL | K (24 h): 4.6 meq/L | LDH (24 h): 127.8 IU/L | Na (24 h): 141.2 meq/L | PL (24 h): 147 mg/dL | RALB (24 h): 3.7 g/dL | TBIL (24 h): 0.4 mg/dL | TC (24 h): 74.2 mg/dL | TG (24 h): 86.4 mg/dL | TP (24 h): 5.5 g/dL | gamma-GTP (24 h): 1.2 IU/L
